In patent US8859527B2 (priority 2009, dated 2014):
Where two headings read alike, the source gives them in different places.

Experiments:
[1] = system: human non-small cell lung cancer H460 xenograft tumor; conditions: for Ending body weight / Tumor weight / Tumor-inhibition rate: 21 days
Experimental: The test article: the inclusion complex of DPT and SBE-β-CD, the content is 5.05%. Preparation Method: it is dissolved in a proper amount of saline after gentle shaking and the concentration is 0.4 mg/ml (which is the test solution for the 8 mg/kg group); other concentrations are prepared by diluting the stock solution of 0.4 mg/ml to the required concentration with physiological saline.
The control article: Etoposide injection produced by Qilu Pharmaceutical Co., Ltd. the batch number is 8060012EV, specification: 5 ml:0.1 g. Preparation Method: Etoposide injection is a kind of transparent sticky liquid and it is diluted with a proper amount of physiological saline and gently shaken and prepared as a homogeneous solution, and the concentration is 1 mg/ml.
Dosage setting: the high dosage group of DPT is 8 mg/kg, the medium dosage group of DPT is 4 mg/kg and the low dosage group of DPT is 2 mg/kg. The dosage for the positive control group of Etoposide injection is 20 mg/kg.
Experimental animals: source, germline and strain: BALB/c nude mice are provided by the Institute of Experimental Animals, Chinese Academy of Medical Sciences. Age: 35-40 days; body weight: 18-24 g; gender: male.
Transplanted tumor: the transplanted tumor for human nonsmall-cell lung cancer H460 in nude mice, and it is established by inoculating the human nonsmall-cell lung cancer H460 cell line hypodermically in the armpit of nude mice. 2×10^6 cells are inoculated.
Human non-small cell lung cancer H460 cell line in exponential phase of growth is prepared as a cell suspension of 2×10^7/ml under sterile conditions, 0.1 ml thereof is inoculated hypodermically in the right armpit of nude mice. The diameters of the transplanted tumors in the nude mice are measured by a sliding caliper, and the animals are randomly divided into different groups when the tumors grow up to the amount of 100 to 300 mm^3. The antitumor efficacy of the test article is dynamically observed by measuring the diameter of the tumor. The diameters of the tumor are determined once for every two days. The administration volume is 0.4 ml/20 g. The mice are killed 21 days after administration, and the tumors are surgically isolated and weighed. The calculation formula for tumor volume (TV) is as follows: TV=½×a×b^2 Wherein a and b represents for the length and the width, respectively.
The relative tumor volume (RTV) is calculated according to the measured results, and the calculation formula is as follows: RTV=Vt/V0. Wherein V0 is the tumor size measured during grouping and drug administration (d0), Vt is the tumor size in every measurements. The evaluation parameter for antitumor activity is the relative tumor growth rate T/C (%) which is calculated according to the formula as follows:
[formula] TRTV: the treatment group RTV; CRTV: the negative control group: RTV.

[2] = system: BGC-823 (human gastric cancer cell line); assay: in vitro growth inhibition of tumor cells, BGC-823; format: cell-based; conditions: for Inhibition effects on in vitro growth: 48 hours
Experimental: The tumor strains are A-549 (human lung adenocarcinoma cell line), BGC-823 (human gastric cancer cell line), C-6 (rat neurogliocytoma cell line), Hep G2 (human hepatic cancer cell line), HL-60 (human leukemia cell line), K-562 (human erythremia cell line) and Hela (human cervical cancer cell line). […] The drug was prepared as a stock solution of 10^−2 M by using physiological saline and diluted into the test solution in a gradient composed of five concentrations: C1 5×10^−5 M, C2 10^−5 M, C3 10^−6 M, C4 10^−7 M and C5 10^−8 M.
Experimental method: different tumor cells in exponential growth phase are inoculated in 96-well plates in a certain amount and the selected samples are added after the cells are cultured for 24 hours (suspension cells can be directly added after being inoculated), after the cells are incubated at 37° C. and 5% CO2 for another 48 hours, […] is added for further incubation for another 4 hours, and finally the samples are examined on a microplate reader after dissolving with DMSO.

[3] = H460 nude mice, 8 mg/kg iv three times a week, 9 times

## COc1cc([C@@H]2c3cc4c(cc3C[C@H]3COC(=O)[C@@H]32)OCO4)cc(OC)c1OC [DPT, Deoxypodophyllotoxin]
[1]; 2 mg/kg iv, 0 d
  Tumor volume: 296 ± 117 mm^3
[1]; 2 mg/kg iv, 2 d
  RTV: 1.396 ± 0.251
  T/C: 86.85%
  Tumor volume: 427 ± 190 mm^3
[1]; 2 mg/kg iv, 4 d
  RTV: 1.827 ± 0.373
  T/C: 69.97%
  Tumor volume: 554 ± 234 mm^3
[1]; 2 mg/kg iv, 6 d
  RTV: 2.391 ± 0.764
  T/C: 78.07%
  Tumor volume: 729 ± 364 mm^3
[1]; 2 mg/kg iv, 8 d
  RTV: 2.819 ± 0.559
  T/C: 64.20%
  Tumor volume: 807 ± 294 mm^3
[1]; 2 mg/kg iv, 10 d
  Gross tumor volume: 1039 ± 316 mm^3
  RTV: 3.750 ± 1.015
  T/C: 74.96%
[1]; 2 mg/kg iv, 12 d
  Gross tumor volume: 1424 ± 511 mm^3
  RTV: 5.122 ± 1.538
  T/C: 68.96%
[1]; 2 mg/kg iv, 14 d
  RTV: 6.698 ± 2.532
  T/C: 78.93%
  Tumor volume: 1777 ± 386 mm^3
[1]; 2 mg/kg iv, 16 d
  RTV: 8.626 ± 3.791
  T/C: 86.49%
  Tumor volume: 2249 ± 394 mm^3
[1]; 2 mg/kg iv, 18 d
  RTV: 8.825 ± 3.701
  T/C: 78.31%
  Tumor volume: 2304 ± 405 mm^3
[1]; 2 mg/kg iv, 21 d
  RTV: 9.776 ± 3.452
  T/C: 84.89%
  Tumor volume: 2591 ± 412 mm^3
[1]; 4 mg/kg iv, 0 d
  Tumor volume: 272 ± 131 mm^3
[1]; 4 mg/kg iv, 2 d
  RTV: 1.324 ± 0.236
  T/C: 82.37%
  Tumor volume: 381 ± 234 mm^3
[1]; 4 mg/kg iv, 4 d
  RTV: 1.823 ± 0.427
  T/C: 69.82%
  Tumor volume: 521 ± 288 mm^3
[1]; 4 mg/kg iv, 6 d
  RTV: 2.465 ± 0.699
  T/C: 80.49%
  Tumor volume: 729 ± 471 mm^3
[1]; 4 mg/kg iv, 8 d
  RTV: 3.331 ± 0.641
  T/C: 75.85%
  Tumor volume: 906 ± 434 mm^3
[1]; 4 mg/kg iv, 10 d
  Gross tumor volume: 1052 ± 475 mm^3
  RTV: 4.041 ± 1.493
  T/C: 80.78%
[1]; 4 mg/kg iv, 12 d
  Gross tumor volume: 1261 ± 586 mm^3
  RTV: 4.780 ± 1.070
  T/C: 64.35%
[1]; 4 mg/kg iv, 14 d
  RTV: 5.954 ± 1.425
  T/C: 70.16%
  Tumor volume: 1530 ± 572 mm^3
[1]; 4 mg/kg iv, 16 d
  RTV: 6.870 ± 1.613
  T/C: 68.88%
  Tumor volume: 1740 ± 637 mm^3
[1]; 4 mg/kg iv, 18 d
  RTV: 7.697 ± 2.279
  T/C: 68.30%
  Tumor volume: 1891 ± 664 mm^3
[1]; 4 mg/kg iv, 21 d
  RTV: 7.832 ± 1.816
  T/C: 68.01%
  Tumor volume: 1945 ± 586 mm^3
[1]; 8 mg/kg iv, 0 d
  Tumor volume: 247 ± 108 mm^3
[1]; 8 mg/kg iv, 2 d
  RTV: 1.248 ± 0.113
  T/C: 77.61%
  Tumor volume: 313 ± 151 mm^3
[1]; 8 mg/kg iv, 4 d
  RTV: 1.721 ± 0.287
  T/C: 65.92%
  Tumor volume: 430 ± 196 mm^3
[1]; 8 mg/kg iv, 6 d
  RTV: 2.403 ± 0.652
  T/C: 78.45%
  Tumor volume: 559 ± 179 mm^3
[1]; 8 mg/kg iv, 8 d
  RTV: 2.747 ± 0.766
  T/C: 62.55%
  Tumor volume: 635 ± 183 mm^3
[1]; 8 mg/kg iv, 10 d
  Gross tumor volume: 895 ± 252 mm^3
  RTV: 3.853 ± 0.732
  T/C: 77.03%
[1]; 8 mg/kg iv, 12 d
  Gross tumor volume: 1034 ± 246 mm^3
  RTV: 4.548 ± 1.106
  T/C: 61.23%
[1]; 8 mg/kg iv, 14 d
  RTV: 4.845 ± 1.330
  T/C: 57.10%
  Tumor volume: 1122 ± 368 mm^3
[1]; 8 mg/kg iv, 16 d
  RTV: 4.955 ± 1.786
  T/C: 49.68%
  Tumor volume: 1132 ± 397 mm^3
[1]; 8 mg/kg iv, 18 d
  RTV: 5.609 ± 1.197
  T/C: 49.77%
  Tumor volume: 1292 ± 340 mm^3
[1]; 8 mg/kg iv, 21 d
  RTV: 5.721 ± 0.925
  T/C: 49.68%
  Tumor volume: 1375 ± 558 mm^3
[1]; H460 nude mice, 2 mg/kg iv group
  Initial body weight: 22.50 ± 1.38 g
[1]; H460 nude mice, 2 mg/kg iv
  Ending body weight: 25.32 ± 2.25 g
  Tumor weight: 2.94 ± 0.68 g
  Tumor-inhibition rate: 9.49%
[1]; H460 nude mice, 4 mg/kg iv group
  Initial body weight: 23.33 ± 2.25 g
[1]; H460 nude mice, 4 mg/kg iv
  Ending body weight: 23.32 ± 2.08 g
  Tumor weight: 2.52 ± 0.92 g
  Tumor-inhibition rate: 22.56%
[1]; H460 nude mice, 8 mg/kg iv group
  Initial body weight: 22.33 ± 1.51 g
[1]; [3]
  Ending body weight: 22.55 ± 2.50 g
  Tumor weight: 1.85 ± 0.95 g
  Tumor-inhibition rate: 43.08%
[1]; H460 nude mice, dosage groups of DPT (8, 4, 2 mg/kg iv)
  effects on the body weight of the animals: no significant inhibition effects on the body weight of the animals
[2]; 5 × 10^−5M
  Inhibition effects on in vitro growth: 52.54%
[2]; 10^−5M
  Inhibition effects on in vitro growth: 35.31%
[2]; 10^−5 to 10^−8 M
  inhibition effects compared with Etoposide: significant better than that of Etoposide
[2]; 10^−6M
  Inhibition effects on in vitro growth: 33.2%
[2]; 10^−7M
  Inhibition effects on in vitro growth: 30.35%
[2]; 10^−8M
  Inhibition effects on in vitro growth: 24.49%
